The nature of series [1]: Displacement of [3H]CNQX from AMPA receptor on rat brain homogenate. Type of series: tissue-based.
In series [2] the test system is Mus musculus. Kind of series: Anticonvulsant activity in DBA/2 mouse assessed as protection from audiogenic seizures at 30 mg/kg, ip measured 1 hr post administration. Type of series: functional, organism-based. Details: dose 30 mg/kg.
For series [3], the system named is Mus musculus. Kind of series: Anticonvulsant activity in DBA/2 mouse assessed as protection from audiogenic seizures at 30 mg/kg, po measured 1 hr post administration. Type of series: functional.
The test system of series [4] is Mus musculus. Put plainly: Anticonvulsant activity in intraperitoneally dosed DBA/2 mouse assessed as protection from tonic seizures measured 1 hr post administration. Conditions: DBA/2, ip. Type of series: functional.
Series [5] is described as follows: Oral bioavailability in DBA/2 mouse at 30 mg/kg. Type of series: ADME, organism-based. Conditions: in vivo.
Series [6] in a line: Clearance in DBA/2 mouse at 30 mg/kg. Format: ADME, organism-based. Details: dose 30 mg/kg. The note with it: in vivo.
In series [7] the test system is Mus musculus. Kind of series: Anticonvulsant activity against po dosed electric-shock mouse model assessed as inhibition of convulsion in hind legs measured 2 hrs post administration. Format: functional.
The subject of series [8] is Mus musculus. Put plainly: Anticonvulsant activity against po dosed electric-shock mouse model assessed as inhibition of convulsion in hind legs at 50 mg/kg, po measured 4 hrs post administration. Type of series: functional.
The subject of series [9] is Mus musculus. Put plainly: Anticonvulsant activity in orally dosed DBA/2 mouse assessed as protection from tonic seizures measured 1 hr post administration. Conditions: DBA/2, po.
Series [10] deals with Mus musculus. Kind of series: Anticonvulsant activity in DBA/2 mouse assessed as protection from audiogenic seizures at 10 mg/kg, po measured 1 hr post administration. Type of series: functional.

As a reminder, the IC50 is the concentration at which inhibition is half-maximal. Higher therefore signals weaker potency in that assay. The ED50 is the dose at which the effect has come halfway, by size or by number of responders. The term bioavailability denotes the share of a dose that reaches the circulation, judged against a reference dose that is usually intravenous. Low values mean little systemic uptake, high ones much systemic uptake. By clearance is commonly meant the rate of elimination divided by the concentration. A lower clearance goes with inefficient removal. A word on the inhibition in vivo: it is the change of the read-out against control, counted positive when it falls.

Activity calls are given as the source filed them. The calls are words filed in the database; no cut-off is given here.

Regarding `CS(=O)(=O)Nn1c(=O)[nH]c2cc(C(F)(F)F)c(-n3cccc3)cc2c1=O`, the IC50 in [1] is 165 nM.

As for `CS(=O)(=O)Nn1c(=O)[nH]c2cc(C(F)(F)F)c(-n3ccnc3)cc2c1=O`, in series [1], the IC50 worked out at 44 nM. Also, the outcome in [2] was Active. For the same compound, the result in series [3] was inactive.

Take `CN(C)C(=O)c1ncn(-c2cc3c(=O)n(NS(C)(=O)=O)c(=O)[nH]c3cc2C(F)(F)F)n1`: the IC50 in series [1] came out at 1020 nM. This lies in the single-digit micromolar range.

The compound `CS(=O)(=O)Nn1c(=O)[nH]c2cc(C(F)(F)F)c(N)cc2c1=O` returned an IC50 in [1] of 1200 nM.

As for `CS(=O)(=O)Nn1c(=O)[nH]c2cc(C(F)(F)F)c(N3CCOCC3)cc2c1=O`, in series [1], the IC50 worked out at 500 nM. Also, the ED50 in [4] is 58 mg/kg. Besides, the bioavailability in series [5] was 100%. Besides, in series [6], the clearance is 135 mL/min/kg.

Compound `CS(=O)(=O)Nn1c(=O)[nH]c2cc(C(F)(F)F)c(N3CCCOCC3)cc2c1=O` returned an IC50 in [1] of 360 nM. The same compound had a bioavailability in series [5] of 100%. Also, in series [6], the clearance was 10.2 mL/min/kg. Further, the ED50 in series [7] is 10.5 mg/kg; in series [9], 5.5 mg/kg. The inhibition in vivo at 50 mg/kg in series [8] was 20%.

Compound `CS(=O)(=O)Nn1c(=O)[nH]c2cc([N+](=O)[O-])c(-n3ccnc3)cc2c1=O` came in with an IC50 in series [1] of 81 nM. Moreover, the outcome in series [2] was Active. Besides, the outcome in series [3] was inactive.

For `CCNc1cc2c(=O)n(NS(C)(=O)=O)c(=O)[nH]c2cc1C(F)(F)F`, the IC50 in series [1] was 1000 nM. The Activity in series [3] came out at 53%.

The compound `CN(CCO)c1cc2c(=O)n(NS(C)(=O)=O)c(=O)[nH]c2cc1C(F)(F)F` came in with an IC50 in series [1] of 250 nM. Also, in [4], the ED50 was 7.9 mg/kg. Moreover, the bioavailability in [5] stood at 100%. In series [6], this compound displayed a clearance of 49 mL/min/kg.

The compound `CS(=O)(=O)Nn1c(=O)[nH]c2cc(C(F)(F)F)c(NCCO)cc2c1=O` had an IC50 in series [1] of 550 nM. In series [10], the Activity is listed as 20%.

In turn, `CN(C)C(=O)c1cn(-c2cc3c(=O)n(NS(C)(=O)=O)c(=O)[nH]c3cc2C(F)(F)F)cn1` returned an IC50 in series [1] of 420 nM. In other words, the sub-micromolar range.

In turn, `CNC(=O)c1ncn(-c2cc3c(=O)n(NS(C)(=O)=O)c(=O)[nH]c3cc2C(F)(F)F)n1` returned an IC50 in [1] of 110 nM. This IC50 lies about 3.8-fold lower than the previous one.

Consider `CS(=O)(=O)Nn1c(=O)[nH]c2cc(C(F)(F)F)c(-n3cnnc3)cc2c1=O`, for which the IC50 in [1] came out at 46 nM. Moreover, in series [2], the outcome was Active. For the same compound, the outcome in series [3] was inactive. The ED50 in series [4] is 0.94 mg/kg. The compound also came in with a bioavailability in series [5] of 10%.

For the compound `CNC(=O)c1cn(-c2cc3c(=O)n(NS(C)(=O)=O)c(=O)[nH]c3cc2C(F)(F)F)cn1`, the result in series [2] was Active. The result in series [3] was inactive. The bioavailability in series [5] stood at 10%.

Values taken from ChEMBL document CHEMBL1938360, “6-Amino quinazolinedione sulfonamides as orally active competitive AMPA receptor antagonists” (Bioorg Med Chem Lett, 2012).
